The test system of one data set is Enterobacter cloacae. In words: In vitro antibacterial activity against Enterobacter cloacae 1321E by agar dilution method using Mueller-Hinton. In kind it is functional.
Data set [1] has as its system Escherichia coli. The data set is described as follows: In vitro antibacterial activity against Escherichia coli 078 by agar dilution method using Mueller-Hinton. The format is functional. (Agar dilution tests growth on a series of plates holding different concentrations.)
Data set [2] concerns Escherichia coli. In words: In vitro antibacterial activity against Escherichia coli 1507E by agar dilution method using Mueller-Hinton. In kind it is functional.
Another data set deals with Klebsiella aerogenes. In words: In vitro antibacterial activity against Klebsiella aerogenes 1522E by agar dilution method using Mueller-Hinton. In kind it is functional.
Data set [3] has as its system Pseudomonas aeruginosa. The data set is described as follows: In vitro antibacterial activity against Pseudomonas aeruginosa 1771M by agar dilution method using Mueller-Hinton. In kind it is functional.
In data set [4] the test system is Pseudomonas aeruginosa. In words: In vitro antibacterial activity against Pseudomonas aeruginosa 9027 by agar dilution method using Mueller-Hinton. In kind it is functional.
The subject of data set [5] is Pseudomonas aeruginosa. In words: In vitro antibacterial activity against Pseudomonas aeruginosa 1592E by agar dilution method using Mueller-Hinton. In kind it is functional.
In a further data set the test system is Salmonella typhimurium. The data set is described as follows: In vitro antibacterial activity against Salmonella Typhimurium by agar dilution method using Mueller-Hinton. As to conditions: Salmonella enterica. In kind it is functional, Salmonella enterica subsp. enterica serovar Typhimurium.
The subject of data set [6] is Staphylococcus aureus. The data set is described as follows: In vitro antibacterial activity against Staphylococcus aureus SG 285 by agar dilution method using Mueller-Hinton. The format is functional.
For data set [7], the system named is Staphylococcus aureus. The data set is described as follows: In vitro antibacterial activity against Staphylococcus aureus SG 503 by agar dilution method using Mueller-Hinton. The format is functional.
In data set [8] the test system is Staphylococcus aureus. In words: In vitro antibacterial activity against Staphylococcus aureus SG 511 by agar dilution method using Mueller-Hinton. The format is functional.
The test system of a further data set is Streptococcus pyogenes. In words: In vitro antibacterial activity against Streptococcus pyogenes 308A by agar dilution method using Mueller-Hinton. The format is functional.
Data set [9] in a line: The area under concentration-time curve(AUC) was determined at 20 mg/kg of compound dose, administered intravenously in rat. The format is ADME, organism-based. Set-up: dose 20 mg/kg, route intravenous. As to conditions: in vivo, iv.
Data set [10] can be described thus: Pharmacokinetic studies were carried out to determine the clearance after administration at 20 mg/kg intravenously in rat. Set-up: dose 20 mg/kg, route intravenous. As to conditions: in vivo, iv. In kind it is ADME, organism-based.

SMILES strings stand for the structures. In brackets after ≈: the same amount, converted by molar mass.

The term MIC denotes the lowest concentration that inhibits growth of the organism. In the case of `C[C@@H](O)[C@H]1C(=O)N2C(C(=O)O)=C(S[C@@H]3CN[C@H](C(=O)N(C)C)C3)[C@H](C)[C@H]12` [MEROPENEM], the MIC against Enterobacter cloacae is 0.025 µg/mL (≈ 0.0652 µM); in the data set with Escherichia coli [1] it was 0.025 µg/mL (≈ 0.0652 µM); in the data set on Escherichia coli [2], 0.025 µg/mL (≈ 0.0652 µM); against Klebsiella aerogenes, 0.049 µg/mL (≈ 0.128 µM); in the data set with Pseudomonas aeruginosa [3] it was 0.049 µg/mL (≈ 0.128 µM); against Pseudomonas aeruginosa [4] it was 0.195 µg/mL (≈ 0.509 µM). In addition, the MIC with Pseudomonas aeruginosa [5] is 0.195 µg/mL (≈ 0.509 µM); with Salmonella typhimurium, 0.049 µg/mL (≈ 0.128 µM); against Staphylococcus aureus [6], 0.195 µg/mL (≈ 0.509 µM); in the data set on Staphylococcus aureus [7] it was 0.098 µg/mL (≈ 0.256 µM); against Staphylococcus aureus [8], 0.195 µg/mL (≈ 0.509 µM); in the data set with Streptococcus pyogenes, 0.013 µg/mL (≈ 0.0339 µM).

As for `C[C@@H](O)[C@H]1C(=O)N2C(C(=O)O)=C(S[C@@H]3CN[C@H](CSc4nnnn4-c4ccncc4)C3)[C@H](C)[C@H]12`, the MIC against Enterobacter cloacae was determined as 0.098 µg/mL (≈ 0.195 µM); with Escherichia coli [1], 0.098 µg/mL (≈ 0.195 µM); in the data set with Escherichia coli [2] it was 0.195 µg/mL (≈ 0.387 µM); against Klebsiella aerogenes it was 0.195 µg/mL (≈ 0.387 µM); in the data set with Pseudomonas aeruginosa [3], 0.781 µg/mL (≈ 1.55 µM); with Pseudomonas aeruginosa [4], 50 µg/mL (≈ 99.3 µM). Further, the MIC against Pseudomonas aeruginosa [5] worked out at 50 µg/mL (≈ 99.3 µM); in the data set with Salmonella typhimurium it was 0.049 µg/mL (≈ 0.0973 µM); in the data set on Staphylococcus aureus [6], 0.098 µg/mL (≈ 0.195 µM); in the data set on Staphylococcus aureus [7] it was 0.049 µg/mL (≈ 0.0973 µM); in the data set on Staphylococcus aureus [8] it was 0.049 µg/mL (≈ 0.0973 µM); in the data set with Streptococcus pyogenes it was 0.007 µg/mL (≈ 0.0139 µM).

For the compound `CNC(=O)CCn1nnnc1SC[C@@H]1C[C@H](SC2=C(C(=O)O)N3C(=O)[C@H]([C@@H](C)O)[C@H]3[C@H]2C)CN1`, the MIC was 0.025 µg/mL (≈ 0.0489 µM) against Enterobacter cloacae; 0.025 µg/mL (≈ 0.0489 µM) with Escherichia coli [1]; 0.025 µg/mL (≈ 0.0489 µM) against Escherichia coli [2]; 0.049 µg/mL (≈ 0.0958 µM) in the data set with Klebsiella aerogenes; 0.391 µg/mL (≈ 0.764 µM) with Pseudomonas aeruginosa [3]; 1.56 µg/mL (≈ 3.05 µM) in the data set with Pseudomonas aeruginosa [4]. The MIC stood at 1.56 µg/mL (≈ 3.05 µM) with Pseudomonas aeruginosa [5]; 0.049 µg/mL (≈ 0.0958 µM) against Salmonella typhimurium; 0.098 µg/mL (≈ 0.192 µM) against Staphylococcus aureus [6]; 0.049 µg/mL (≈ 0.0958 µM) with Staphylococcus aureus [7]; 0.098 µg/mL (≈ 0.192 µM) in the data set on Staphylococcus aureus [8]; 0.007 µg/mL (≈ 0.0137 µM) against Streptococcus pyogenes.

Regarding `CNS(=O)(=O)CCn1nnnc1SC[C@@H]1C[C@H](SC2=C(C(=O)O)N3C(=O)[C@H]([C@@H](C)O)[C@H]3[C@H]2C)CN1`, the MIC was 0.025 µg/mL (≈ 0.0456 µM) in the data set on Enterobacter cloacae; 0.025 µg/mL (≈ 0.0456 µM) with Escherichia coli [1]; 0.025 µg/mL (≈ 0.0456 µM) with Escherichia coli [2]; 0.049 µg/mL (≈ 0.0895 µM) against Klebsiella aerogenes; 0.391 µg/mL (≈ 0.714 µM) against Pseudomonas aeruginosa [3]; 3.12 µg/mL (≈ 5.71 µM) against Pseudomonas aeruginosa [4]. Also, the MIC against Pseudomonas aeruginosa [5] was found to be 3.12 µg/mL (≈ 5.71 µM); against Salmonella typhimurium it was 0.049 µg/mL (≈ 0.0895 µM); against Staphylococcus aureus [6], 0.098 µg/mL (≈ 0.179 µM); against Staphylococcus aureus [7], 0.025 µg/mL (≈ 0.0456 µM); with Staphylococcus aureus [8], 0.098 µg/mL (≈ 0.179 µM); in the data set with Streptococcus pyogenes, 0.007 µg/mL (≈ 0.0128 µM).

`C[C@@H](O)[C@H]1C(=O)N2C(C(=O)O)=C(S[C@@H]3CN[C@H](CSc4nnnn4CC(=O)N(C)C)C3)[C@H](C)[C@H]12`: the MIC with Enterobacter cloacae stood at 0.049 µg/mL (≈ 0.0958 µM); against Escherichia coli [1], 0.025 µg/mL (≈ 0.0489 µM); in the data set with Escherichia coli [2] it was 0.049 µg/mL (≈ 0.0958 µM); against Klebsiella aerogenes it was 0.098 µg/mL (≈ 0.192 µM); against Pseudomonas aeruginosa [3], 0.391 µg/mL (≈ 0.764 µM); against Pseudomonas aeruginosa [4], 3.12 µg/mL (≈ 6.11 µM). The MIC against Pseudomonas aeruginosa [5] turned out to be 3.12 µg/mL (≈ 6.11 µM); against Salmonella typhimurium, 0.049 µg/mL (≈ 0.0958 µM); in the data set with Staphylococcus aureus [6], 0.195 µg/mL (≈ 0.381 µM); against Staphylococcus aureus [7] it was 0.049 µg/mL (≈ 0.0958 µM); with Staphylococcus aureus [8], 0.195 µg/mL (≈ 0.381 µM); in the data set on Streptococcus pyogenes it was 0.013 µg/mL (≈ 0.0254 µM).

Broadly, the AUC is concentration integrated over time. High values mean high exposure, low ones low exposure. The clearance is a measure of how efficiently the substance is removed, as volume per time. The compound `C[C@@H](O)[C@H]1C(=O)N2C(C(=O)O)=C(SCCNC=N)C[C@H]12` [IMIPENEM ANHYDROUS] gave an AUC in data set [9] of 5500 ng·h/mL. In data set [10], this compound yielded a clearance of 61.5 mL/min/kg. In addition, the MIC in the data set with Enterobacter cloacae is 0.195 µg/mL (≈ 0.651 µM); in the data set with Escherichia coli [1], 0.098 µg/mL (≈ 0.327 µM); in the data set on Escherichia coli [2], 0.195 µg/mL (≈ 0.651 µM); in the data set with Klebsiella aerogenes, 0.391 µg/mL (≈ 1.31 µM); against Pseudomonas aeruginosa [3] it was 0.195 µg/mL (≈ 0.651 µM); against Pseudomonas aeruginosa [4], 0.781 µg/mL (≈ 2.61 µM). In addition, the MIC was 1.56 µg/mL (≈ 5.22 µM) with Pseudomonas aeruginosa [5]; 0.781 µg/mL (≈ 2.61 µM) in the data set on Salmonella typhimurium; 0.025 µg/mL (≈ 0.0835 µM) in the data set with Staphylococcus aureus [6]; 0.013 µg/mL (≈ 0.0434 µM) in the data set with Staphylococcus aureus [7]; 0.025 µg/mL (≈ 0.0835 µM) with Staphylococcus aureus [8]; 0.007 µg/mL (≈ 0.0234 µM) against Streptococcus pyogenes.

For the compound `C[C@@H](O)[C@H]1C(=O)N2C(C(=O)O)=C(S[C@@H]3CN[C@H](CSc4nnnn4CCC(N)=O)C3)[C@H](C)[C@H]12`, the MIC is 0.025 µg/mL (≈ 0.0502 µM) against Enterobacter cloacae; 0.025 µg/mL (≈ 0.0502 µM) against Escherichia coli [1]; 0.025 µg/mL (≈ 0.0502 µM) in the data set on Escherichia coli [2]; 0.049 µg/mL (≈ 0.0985 µM) in the data set with Klebsiella aerogenes; 0.195 µg/mL (≈ 0.392 µM) against Pseudomonas aeruginosa [3]; 1.56 µg/mL (≈ 3.14 µM) in the data set on Pseudomonas aeruginosa [4]. Moreover, the MIC was 0.781 µg/mL (≈ 1.57 µM) against Pseudomonas aeruginosa [5]; 0.049 µg/mL (≈ 0.0985 µM) against Salmonella typhimurium; 0.098 µg/mL (≈ 0.197 µM) in the data set on Staphylococcus aureus [6]; 0.025 µg/mL (≈ 0.0502 µM) in the data set on Staphylococcus aureus [7]; 0.098 µg/mL (≈ 0.197 µM) in the data set with Staphylococcus aureus [8]; 0.013 µg/mL (≈ 0.0261 µM) against Streptococcus pyogenes.

The record behind these values is ChEMBL document CHEMBL1133208, “Synthesis and biological properties of new 1beta-methylcarbapenems having tetrazolothioether moiety” (Bioorg Med Chem Lett, 2000).
